# Patent US7037939B2, “Compound and derivative of gabapentin” (Industrial Technology Research Institue, priority 2002, dated 2006)
# Tests used:
# [1] = Oral drug absorption test in rats: gabapentin concentration in blood/serum by LC/MS/MS; type: in vivo, rat; conditions: 300 mg/kg, ratio of AUC to Gabapentin HCl
# Protocol: Rats (3 male, Winstar rats) are fed with 300 mg/kg dosage of compounds. Plural blood samples are collected at different times (0, 0.5, 1, 2, 3, 8, 12, 24 hrs). The blood samples are centrifuged, and the concentration of gabapentin in the serum are analyzed with LC/MS/MS (MRM method, limitation of instruments 0.005 μg/mL).
# After reducing the dosage, compounds of gabapentin prodrugs were selected for further pharmacodynamic analysis. The rats are fed with 50 mg/kg dosage of gabapentin equivalency individually.
# Caco-2 cell = test: Caco-2 monolayer cell transmission rate (in vitro intestinal absorption model); type: in vitro ADME, human
# Text: The common use of the activity selection model for the in vitro intestinal absorption comprises: (1) Carcinoms (Caco-2); (2) Using Chamber; (3) Everted Gut Sac. Basically, there is no difference for those three drug-activity-selection models when they are used for evaluating the activity selection. However, in terms of the cell source from human, a cell line is predominant. Moreover, with the cellular metabolism being similar to human intestines, Caco-2 becomes an excellent tool in the study of intestine absorption. Therefore, in the comparison of the in vitro transmission rate between gabapentin and gabapentin derivatives, the Caco-2 system is still the favorable model.
# The research for studying gabapentin and the derivatives thereof in the present invention includes: Caco-2 cell activation, Caco-2 monolayer cell cultivation, resistance value measurement, effect of time to gabapentin transmission rate, and comparison of transmission rate between gabapentin and gabapentin derivatives. In constructing the Caco-2 monolayer, the original cell line is the human colon adenocarcinoma cell (Caco-2), and its data sheet is listed as Table 2.
# The Caco-2 cell is activated appropriately, and seeded in the transwell at 37° C. in an amount of about 1×10^5. The aliquot is cultivated in 5% CO2 at 37° C. and replaced with a fresh medium every 3 to 4 days, and then the monolayer cell is obtained by the 21 days cultivation. The integrity of the Caco-2 cell is further characterized by tissue section and resistance value measurement.
# HPLC Analysis: Intersil ODS-3V 250*4.6 mm column, Solvent: MeOH/H2O=10:90 to 70:30 with 0.1% of NH4OAc, Flow rate=1.0 ml/min, ELSD: Evaporative Light Scattering Detector. Every derivative has been repeated for 3 times in analysis, 4 hr later, the sample is analyzed for the transmission rate and then averaged to account its transmission fold.
# [2] = Caco-2 monolayer, 4 h, mean of 3 repeats, HPLC-ELSD
# [3] = ratio of Caco-2 transmission rate to GBP.HCl, 4 h
SMILES,AUC value relative to Gabapentin HCl [1] [times],"Caco-2 Cell Mean Total Transmission rate 4 h (%) (Caco-2 cell; human, Caco-2, 4 h)","gbp-prodrug/gbp Transmission Fold (Caco-2 cell; human, Caco-2, 4 h) [Fold]",Caco-2 Cell Mean Total Transmission rate 4 h (%) (Caco-2 cell; [2]),gbp-prodrug/gbp Transmission Fold (Caco-2 cell; [3]) [Fold]
"CCOC(=O)CC1(CNC(=O)CC2(CN)CCCCC2)CCCCC1 [Embodiment 2, (1-{[2-(1-Aminomethyl-cyclohexyl)-acetylamino]-methyl}-cyclohexyl)-acetic acid ethyl ester]",14.9,10.25,9.3,,
"CCOC(=O)CC1(CNC(=O)C(N)c2ccccc2)CCCCC1 (stereo not drawn) [Embodiment 30, {1-[(2-Amino-2-phenyl-acetylamino)-methyl]-cyclohexyl}-acetic acid ethyl ester]",,11.87,10.8,,
"CCOC(=O)CC1(CNC(=O)C(N)CCc2ccccc2)CCCCC1 (stereo not drawn) [Embodiment 31, {1-[(2-Amino-4-phenyl-butyrylamino)-methyl]-cyclohexyl}-acetic acid ethyl ester]",,12.30,11.2,,
"CCOC(=O)CC1(CNC(=O)C(N)CCc2ccccc2)CCCCC1 (stereo not drawn) [Embodiment 32, {1-[(2-Amino-4-phenyl-butyrylamino)-methyl]-cyclohexyl}-acetic acid ethyl ester]",,1.76,1.6,,
"CCOC(=O)CC1(CNC(=O)C(N)c2cc3ccccc3[nH]2)CCCCC1 (stereo not drawn) [Embodiment 33, (1-{[2-Amino-2-(1H-indol-2-yl)-acetylamino]-methyl}-cyclohexyl)-acetic acid ethyl ester]",,,,9.97,9.1
"CCOC(=O)CC1(CNC(=O)C2CSCN2)CCCCC1 (stereo not drawn) [Embodiment 34, (1-{[(Thiazolidine-4-carbonyl)-amino]-methyl}-cyclohexyl)-acetic acid ethyl ester]",,4.50,4.1,,
"CCOC(=O)CC1(CNC(=O)C(N)c2ccc(O)cc2)CCCCC1 (stereo not drawn) [Embodiment 35, (1-{[2-Amino-2-(4-hydroxy-phenyl)-acetylamino]-methyl}-cyclohexyl)-acetic acid ethyl ester]",,10.33,9.4,,
"CCOC(=O)CC1(CNC(=O)CCNC(=O)c2cccnc2)CCCCC1 [Embodiment 36, [1-({3-[(Pyridine-3-carbonyl)-amino]-propionylamino}-methyl)-cyclohexyl]-acetic acid ethyl ester]",,,,9.00,8.2
"CCOC(=O)CC1(CNC(=O)C2CSCN2C(=O)OC(C)(C)C)CCCCC1 (stereo not drawn) [Embodiment 37, 4-[(1-Ethoxycarbonylmethyl-cyclohexylmethyl)-carbamoyl]-thiazolidine-3-carboxylic acid tert-butyl ester]",,,,6.13,5.6
"CCOC(=O)CC1(CNC(=O)C(NC(=O)OC(C)(C)C)c2ccc(O)cc2)CCCCC1 (stereo not drawn) [Embodiment 38, (1-{[2-tert-Butoxycarbonylamino-2-(4-hydroxy-phenyl)-acetylamino]-methyl}-cyclohexyl)-acetic acid ethyl ester]",,,,5.05,4.6
